The record followed here is patent US11155546B2, “4,6,7-trisubstituted 1,2-dihydropyrrolo[3,4-c]pyridin/pyrimidin-3-one derivatives and uses thereof” (SHANGHAI HAIYAN PHARMACEUTICAL TECHNOLOGY CO., LTD., priority 2017, dated 2021).

One assay deals with BTK WT (Homo sapiens (Human), UniProt Q06187). Briefly: Lantha screening kinase reaction, inhibition of BTK WT. It counts as biochemical. How it is done:
The compound was predissolved in 100% DMSO. 10 mM drug stock solution was obtained by dissolution at room temperature and then serially diluted with 8 vol % DMSO solution to a final concentration of 10-0.005 μM. […] Among the wells, the kinase in the blank well was replaced with a reaction buffer and the kinase well (Enzyme) was not added with any drug. After shaking at 25° C. for 60 minutes in the dark, 10 μl of Detection Solution (mixture of Invitrogen PV3528 and EDTA, which was diluted with TR-FRET dilution buffer, the working concentration of EDTA was 5 mM, the working concentration of Lanthascreening Tb PY20 antibody was 0.2 nM) was added and shaken at room temperature for 30 minutes. The plates were read on a VictorX5 fluorescent plate reader (PerkinElmer) and the light absorption at an excitation wavelength of 340 nm and emission wavelengths of 500 nm and 520 nm was measured.
The calculation method for the inhibition ratio (referring to the specification of Invitrogen, PV3363) was as follows: Emission ratio (ER):Coumarin Emission (520 nm)/Fluorescein Emission (500 nm) 1. The inhibition ratio (IR):(ERkinase−ERtest compound)/(ERkinase−ERblank)×100%. 2.
The half-inhibitory concentration IC50 was calculated by fitting with XLFIT5.0 software (IDBS, UK).

The target of another assay is βBTK Y223 (Homo sapiens (Human), UniProt Q06187). The assay is described as follows: Intracellular βBTK Y223 phosphorylation HTRF in Ramos cells. It counts as cell-based. The method, then:
The compound was predissolved in 100% DMSO. […] 20 μl of lysate (4× lysate: blocked mother liquor is 25:1) was added to each well and incubated for 30 minutes at 25° C. on a shaker. It was shaken on an oscillator at 800 rpm for 1 minute. […] The half-inhibitory concentration IC50 was calculated by fitting with XLFIT 5.0 software (IDBS, UK).

Another assay concerns the target wild-type EGFR kinase (Homo sapiens (Human), UniProt P00533). The assay is described as follows: Wild type EGFR kinase inhibition test (z-lyte). Format: biochemical. The note with it: 10 μM ATP; read-out: EGFR WT IC50. An excerpt:
All the following reagents used in z-lyte test are commercially available from Invitrogen.
The calculation method for the inhibition ratio (referring to the specification of Invitrogen, PV3363) was as follows: ER=Coumarin Emission(450 nm)/Fluorescein Emission(520 nm) 1. Phosphorylation ratio=(1−((ER×C3520nm−C3450nm)/((C1450nm−C3450nm)+ER×(C3520nm−C1520nm))))×100% 2. Inhibition ratio (IR)=(1−phosphorylation ratio of the test compound)/(phosphorylation ratio of C2))×100% 3.
The half-inhibitory concentration IC50 was calculated by fitting with XLFIT 5.0 software (IDBS, UK).

Sequence of βBTK Y223 (Q06187 whole entry): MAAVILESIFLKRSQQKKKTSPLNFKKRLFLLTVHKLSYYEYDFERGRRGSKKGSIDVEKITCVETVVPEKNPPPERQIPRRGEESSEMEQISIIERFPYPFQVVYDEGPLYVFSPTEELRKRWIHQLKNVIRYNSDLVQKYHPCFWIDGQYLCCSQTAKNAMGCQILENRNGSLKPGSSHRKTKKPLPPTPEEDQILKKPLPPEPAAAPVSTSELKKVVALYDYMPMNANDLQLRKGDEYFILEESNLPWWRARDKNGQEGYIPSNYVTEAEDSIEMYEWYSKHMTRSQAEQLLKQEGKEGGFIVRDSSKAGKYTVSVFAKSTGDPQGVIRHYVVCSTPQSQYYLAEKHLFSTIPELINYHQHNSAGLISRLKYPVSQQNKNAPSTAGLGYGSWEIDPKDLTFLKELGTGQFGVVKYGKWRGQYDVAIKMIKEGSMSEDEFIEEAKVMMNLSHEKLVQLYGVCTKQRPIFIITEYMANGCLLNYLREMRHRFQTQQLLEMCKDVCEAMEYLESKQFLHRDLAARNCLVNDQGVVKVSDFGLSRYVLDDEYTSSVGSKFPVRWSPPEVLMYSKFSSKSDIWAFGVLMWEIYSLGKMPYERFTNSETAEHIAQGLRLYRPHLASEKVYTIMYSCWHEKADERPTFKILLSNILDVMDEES
Sequence of BTK WT (Q06187 whole entry): as above
Sequence of wild-type EGFR kinase (P00533 25-1210): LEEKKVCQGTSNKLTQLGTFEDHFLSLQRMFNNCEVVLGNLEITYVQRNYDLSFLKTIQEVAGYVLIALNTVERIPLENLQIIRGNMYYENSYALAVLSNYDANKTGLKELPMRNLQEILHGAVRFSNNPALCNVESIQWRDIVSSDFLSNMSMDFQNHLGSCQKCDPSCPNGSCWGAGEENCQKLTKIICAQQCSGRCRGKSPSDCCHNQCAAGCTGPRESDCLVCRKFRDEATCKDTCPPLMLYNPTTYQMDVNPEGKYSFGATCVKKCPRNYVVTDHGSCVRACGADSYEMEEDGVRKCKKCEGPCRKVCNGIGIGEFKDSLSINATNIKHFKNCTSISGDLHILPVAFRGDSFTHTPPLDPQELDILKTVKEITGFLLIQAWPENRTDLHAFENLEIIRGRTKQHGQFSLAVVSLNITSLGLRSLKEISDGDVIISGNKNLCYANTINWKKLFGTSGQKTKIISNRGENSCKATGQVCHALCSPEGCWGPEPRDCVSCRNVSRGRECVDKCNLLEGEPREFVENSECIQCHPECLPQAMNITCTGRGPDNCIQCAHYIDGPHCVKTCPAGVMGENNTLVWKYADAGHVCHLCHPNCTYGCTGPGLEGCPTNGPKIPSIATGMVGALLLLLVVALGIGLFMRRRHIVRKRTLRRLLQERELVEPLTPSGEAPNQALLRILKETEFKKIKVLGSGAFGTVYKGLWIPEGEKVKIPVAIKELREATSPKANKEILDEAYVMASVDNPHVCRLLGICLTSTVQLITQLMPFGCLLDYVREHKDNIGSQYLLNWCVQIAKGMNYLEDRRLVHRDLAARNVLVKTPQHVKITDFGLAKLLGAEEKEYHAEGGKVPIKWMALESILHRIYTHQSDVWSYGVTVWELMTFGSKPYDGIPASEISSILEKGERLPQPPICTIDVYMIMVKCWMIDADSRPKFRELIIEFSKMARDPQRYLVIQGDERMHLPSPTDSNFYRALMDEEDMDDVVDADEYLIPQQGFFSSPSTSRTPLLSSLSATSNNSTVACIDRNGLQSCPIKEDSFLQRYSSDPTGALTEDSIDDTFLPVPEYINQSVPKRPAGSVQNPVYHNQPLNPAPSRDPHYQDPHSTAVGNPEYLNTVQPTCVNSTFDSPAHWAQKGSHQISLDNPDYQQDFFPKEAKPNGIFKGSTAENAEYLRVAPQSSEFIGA

As usually defined, the IC50 is the concentration needed to halve the response being measured. Turning to `C=CC(=O)N1CCCC(Nc2nc(Nc3cnn(C4CCS(=O)(=O)CC4)c3)c3c(c2F)CNC3=O)C1` (stereo not drawn) [Compound G-13], the IC50 at BTK WT is 3 nM; against βBTK Y223 it was 45 nM; on wild-type EGFR kinase, 1600 nM.

For the molecule `C=CC(=O)N1CCCC(Nc2nc(Nc3cnn(C4CN(C)CC4F)c3)c3c(c2F)CNC3=O)C1` (stereo not drawn) [Compound G-15], the IC50 on BTK WT turned out to be 3 nM; at βBTK Y223, 5 nM; on wild-type EGFR kinase, 1220 nM.

With `C=CC(=O)N1CCCC(Nc2nc(Nc3ccc(N4CCOCC4=O)cc3)c3c(c2F)CNC3=O)C1` (stereo not drawn) [Compound G-17], the IC50 at BTK WT was found to be 2 nM; against βBTK Y223, 16 nM; on wild-type EGFR kinase, 1500 nM.

Take `C=CC(=O)N1CCCC(Nc2nc(Nc3cnn(C)c3)c3c(c2F)CNC3=O)C1` (stereo not drawn) [Compound G-25]: the values for the IC50 against BTK WT, against βBTK Y223 and at wild-type EGFR kinase were 2 nM, 2 nM and 1090 nM, respectively.

Turning to `C=CC(=O)N1CCCCC(Nc2nc(Nc3ccc(N4CCOCC4)cc3)c3c(c2F)CNC3=O)C1` (stereo not drawn) [Compound G-27], the IC50 against BTK WT was found to be 5 nM; against βBTK Y223, 11 nM; at wild-type EGFR kinase, 3690 nM.

Take `C=CC(=O)N1CC(Nc2nc(Nc3ccc(N4CCOCC4)cc3)c3c(c2F)CNC3=O)CCC1C` (stereo not drawn) [Compound G-28]: the results for the IC50 against BTK WT, on βBTK Y223 and on wild-type EGFR kinase were 5 nM, 10 nM and 2300 nM, respectively.

As to `C=CC(=O)N1CCCC(Nc2nc(-c3cnn(C)c3)c3c(c2F)CNC3=O)C1C` (stereo not drawn) [Compound G-51], the IC50 at BTK WT amounted to 62 nM; against βBTK Y223, 80 nM; at wild-type EGFR kinase it was 6820 nM.

Turning to `C=CC(=O)N1CCCC(Nc2nc3c(c(Nc4cnn(C)c4)n2)C(=O)NC3)C1` (stereo not drawn) [Compound G-59, 2-(1-acryloylpiperidin-3-ylamino)-4-(1-methyl-1H-pyrazole-4-ylamino)-6,7-dihydrogen-5H-pyrrolo[3,4-d]pyrimidine-5-one], the half-maximal inhibitory concentration (IC50) at BTK WT came out at 13 nM; against βBTK Y223 it was 16 nM; on wild-type EGFR kinase, 1020 nM.

For the molecule `C=CC(=O)N1CCCC(N(C)c2nc(-c3cnn(C(F)F)c3)c3c(c2F)CNC3=O)C1` (stereo not drawn) [Compound G-63, 6-((1-acryloylpiperidin-3-yl)(methyl)amino)-4-(1-(difluoromethyl)-1H-pyrazole-4-yl)-7-fluoro-1H-pyrrolo[3,4-c]pyridine-3(2H)-one], the IC50 against BTK WT was 25 nM; at βBTK Y223 it was 50 nM; at wild-type EGFR kinase, above 10000 nM.

In the case of `C=CC(=O)N1CC2CN(c3nc(Nc4cnn(C)c4)c4c(c3F)CNC4=O)CC2C1` (stereo not drawn) [Compound G-76], the IC50 came out at 0.8 nM against BTK WT, 2 nM against βBTK Y223 and 1360 nM at wild-type EGFR kinase.

For `C=CC(=O)NC1CN(c2nc(Nc3cnn(C)c3)c3c(c2F)CNC3=O)C1` [Compound G-85, N-(1-(7-fluoro-4-(1-methyl-1H-pyrazol-4-ylamino)-3-oxo-2,3-dihydro-1H-pyrrolo[3,4-c]pyridin-6-yl)azetidin-3-yl)acrylamide], the concentration for half-maximal inhibition (IC50) against BTK WT was 32 nM; on βBTK Y223, 43 nM; at wild-type EGFR kinase it was 1120 nM.

For the molecule `C=CC(=O)NC1CN(c2nc(Nc3ccc(N4CCOCC4)cc3)c3c(c2F)CNC3=O)CC1F` (stereo not drawn) [Compound G-86, N-(4-fluoro-1-(7-fluoro-4-(4-morpholin)-3-oxo-2,3-dihydro-1H-pyrrolo[3,4-c]pyridin-6-yl)pyrrolidinepyridine-3-yl)acrylamide], the IC50 turned out to be 1 nM on BTK WT, 5 nM against βBTK Y223 and 1180 nM at wild-type EGFR kinase.

Regarding `C=CC(=O)N(C)C1CCN(c2nc(Nc3cnn(C)c3)c3c(c2F)CNC3=O)C1` (stereo not drawn) [Compound G-88, N-(1-(7-fluoro-4-(1-methyl-1H-pyrazol-4-ylamino)-3-oxo-2,3-dihydro-1H-pyrrolo[3,4-c]pyridin-6-yl)pyrrolidine-3-yl)-N-methyl acrylamide], the IC50 worked out at 17 nM on BTK WT, 56 nM against βBTK Y223 and 1050 nM on wild-type EGFR kinase.
